In US20260085077A1, “HETEROCYCLIC DERIVATIVES AS JANUS KINASE INHIBITORS” (CHIESI FARMACEUTICI S.P.A., priority 2022, published 2026):

Tested on: IL-13 induced pSTAT6 in BEAS-2B human cell line
Experiment: Inhibition of IL-13 induced pSTAT6 in BEAS
Format: cell-based
Settings: IL-13 induced pSTAT6, BEAS-2B cells, ELISA
Description: BEAS-2B human cell line was seeded (100.000 cells/well) and incubated for 48 h at 37° C., 5% CO2, 95% humidity. Compounds were added and incubated 30 min followed by IL-13 as trigger. After 30 min incubation, cells were lysed and pSTAT6 determined by Fastscan phospho-stat6 (Tyr641) sandwich ELISA kit (cell signaling). Inhibitors were tested at 11 consecutive […] dilutions starting from 10 μM (10 μM-40 pM) in duplicate. Calculation of IC50 data, curves and QC analysis were made using Excel tools and GraphPadPrism software. QC criteria parameters: Z′≥0.35, Hill Slope range 0.5 to 5, S:B>2.

Structure (SMILES)	IC50 [nM]
COc1cc2c(cc1-n1nc(NC(=O)OCCN3CCOCC3)c3cnc(-c4cnn5cccnc45)cc31)SCCN2 [Example 29, 2-morpholinoethyl (1-(6-methoxy-3,4-dihydro-2H-benzo[b][1,4]thiazin-7-yl)-6-(pyrazolo[1,5-a]pyrimidin-3-yl)-1H-pyrazolo[4,3-c]pyridin-3-yl)carbamate]	< 5.01
COc1cc2c(cc1-n1nc(NC(=O)OCCCN3CCN(C)CC3)c3cnc(-c4cnn5cccnc45)cc31)SCCN2 [Example 30, 3-(4-methylpiperazin-1-yl)propyl (1-(6-methoxy-3,4-dihydro-2H-benzo[b][1,4]thiazin-7-yl)-6-(pyrazolo[1,5-a]pyrimidin-3-yl)-1H-pyrazolo[4,3-c]pyridin-3-yl)carbamate]	5.01 to 50.1
COc1cc2c(cc1-n1nc(NC(=O)OCCN3CCCCC3)c3cnc(-c4cnn5cccnc45)cc31)SCCN2 [Example 31, 2-(piperidin-1-yl)ethyl (1-(6-methoxy-3,4-dihydro-2H-benzo[b][1,4]thiazin-7-yl)-6-(pyrazolo[1,5-a]pyrimidin-3-yl)-1H-pyrazolo[4,3-c]pyridin-3-yl)carbamate]	5.01 to 50.1
COc1cc2c(cc1-n1nc(NC(=O)O[C@@H]3CCN(C)C3)c3cnc(-c4cnn5cccnc45)cc31)SCCN2 [Example 32, (R)-1-methylpyrrolidin-3-yl (1-(6-methoxy-3,4-dihydro-2H-benzo[b][1,4]thiazin-7-yl)-6-(pyrazolo[1,5-a]pyrimidin-3-yl)-1H-pyrazolo[4,3-c]pyridin-3-yl)carbamate]	5.01 to 50.1
COc1cc2c(cc1-n1nc(NC(=O)O[C@H]3CCN(C)C3)c3cnc(-c4cnn5cccnc45)cc31)SCCN2 [Example 33, (S)-1-methylpyrrolidin-3-yl (1-(6-methoxy-3,4-dihydro-2H-benzo[b][1,4]thiazin-7-yl)-6-(pyrazolo[1,5-a]pyrimidin-3-yl)-1H-pyrazolo[4,3-c]pyridin-3-yl)carbamate]	5.01 to 50.1
COc1cc2c(cc1-n1nc(NC(=O)OCC3(N(C)C)CCOCC3)c3cnc(-c4cnn5cccnc45)cc31)SCCN2 [Example 34, (4-(dimethylamino)tetrahydro-2H-pyran-4-yl)methyl (1-(6-methoxy-3,4-dihydro-2H-benzo[b][1,4]thiazin-7-yl)-6-(pyrazolo[1,5-a]pyrimidin-3-yl)-1H-pyrazolo[4,3-c]pyridin-3-yl)carbamate]	5.01 to 50.1
COc1cc2c(cc1-n1nc(NC(=O)OCCN3CC[C@@H](OC)C3)c3cnc(-c4cnn5cccnc45)cc31)SCCN2 [Example 35, (R)-2-(3-methoxypyrrolidin-1-yl)ethyl (1-(6-methoxy-3,4-dihydro-2H-benzo[b][1,4]thiazin-7-yl)-6-(pyrazolo[1,5-a]pyrimidin-3-yl)-1H-pyrazolo[4,3-c]pyridin-3-yl)carbamate]	5.01 to 50.1
COc1cc2c(cc1-n1nc(NC(=O)N(C)C)c3cnc(-c4cnn5cccnc45)cc31)SCCN2 [Example 36, 3-(1-(6-methoxy-3,4-dihydro-2H-benzo[b][1,4]thiazin-7-yl)-6-(pyrazolo[1,5-a]pyrimidin-3-yl)-1H-pyrazolo[4,3-c]pyridin-3-yl)-1,1-dimethylurea]	< 5.01
COc1cc2c(cc1-n1nc(NCCN3CCN(C)CC3)c3cnc(-c4cnn5cccnc45)cc31)SCC(=O)N2 [Example 37]	5.01 to 50.1
COc1cc2c(cc1-n1nc(NCCN(C)C)c3cnc(-c4cnn5cccnc45)cc31)SCC(=O)N2 [Example 38, 7-(3-((2-(dimethylamino)ethyl)amino)-6-(pyrazolo[1,5-a]pyrimidin-3-yl)-1H-pyrazolo[4,3-c]pyridin-1-yl)-6-methoxy-2H-benzo[b][1,4]thiazin-3(4H)-one]	5.01 to 50.1
COc1cc2sncc2cc1-n1nc(NCCN2CCOCC2)c2cnc(-c3cnn4cccnc34)cc21 [Example 39, 1-(6-methoxybenzo[d]isothiazol-5-yl)-N-(2-morpholinoethyl)-6-(pyrazolo[1,5-a]pyrimidin-3-yl)-1H-pyrazolo[4,3-c]pyridin-3-amine]	5.01 to 50.1
COc1cc2c(cc1-n1nc(C)c3cnc(-c4cnn5cccnc45)cc31)OCCN2 [Example 40, 6-methoxy-7-(3-methyl-6-(pyrazolo[1,5-a]pyrimidin-3-yl)-1H-pyrazolo[4,3-c]pyridin-1-yl)-3,4-dihydro-2H-benzo[b][1,4]oxazine]	5.01 to 50.1
COc1cc2c(cc1-n1nc(C)c3cnc(-c4cnn5cccnc45)cc31)CCN2 [Example 41, 1-(6-methoxyindolin-5-yl)-3-methyl-6-(pyrazolo[1,5-a]pyrimidin-3-yl)-1H-pyrazolo[4,3-c]pyridine]	5.01 to 50.1
COc1cc2c(cc1-n1nc(C)c3cnc(-c4cnn5cccnc45)cc31)CCCN2 [Example 42, 7-methoxy-6-(3-methyl-6-(pyrazolo[1,5-a]pyrimidin-3-yl)-1H-pyrazolo[4,3-c]pyridin-1-yl)-1,2,3,4-tetrahydroquinoline]	< 5.01
COc1cc2c(cc1-n1nc(C(=O)NCCCN(C)C)c3cnc(-c4cnn5cccnc45)cc31)OCCN2 [Example 43, N-(3-(dimethylamino)propyl)-1-(6-methoxy-3,4-dihydro-2H-benzo[b][1,4]oxazin-7-yl)-6-(pyrazolo[1,5-a]pyrimidin-3-yl)-1H-pyrazolo[4,3-c]pyridine-3-carboxamide]	5.01 to 50.1
COc1cc2c(cc1-n1nc(C(=O)NC3CN(C)C3)c3cnc(-c4cnn5cccnc45)cc31)OCCN2 [Example 44, 1-(6-methoxy-3,4-dihydro-2H-benzo[b][1,4]oxazin-7-yl)-N-(1-methylazetidin-3-yl)-6-(pyrazolo[1,5-a]pyrimidin-3-yl)-1H-pyrazolo[4,3-c]pyridine-3-carboxamide]	5.01 to 50.1
COc1cc2c(cc1-n1nc(C(=O)NC[C@@H]3CN(C)CCO3)c3cnc(-c4cnn5cccnc45)cc31)OCCN2 [Example 45, (R)-1-(6-methoxy-3,4-dihydro-2H-benzo[b][1,4]oxazin-7-yl)-N-((4-methylmorpholin-2-yl)methyl)-6-(pyrazolo[1,5-a]pyrimidin-3-yl)-1H-pyrazolo[4,3-c]pyridine-3-carboxamide]	5.01 to 50.1
COc1cc2c(cc1-n1nc(C(=O)NCCN3CCC(OC)CC3)c3cnc(-c4cnn5cccnc45)cc31)OCCN2 [Example 46, 1-(6-methoxy-3,4-dihydro-2H-benzo[b][1,4]oxazin-7-yl)-N-(2-(4-methoxypiperidin-1-yl)ethyl)-6-(pyrazolo[1,5-a]pyrimidin-3-yl)-1H-pyrazolo[4,3-c]pyridine-3-carboxamide]	< 5.01
COCC1CCN(CCNC(=O)c2nn(-c3cc4c(cc3OC)NCCO4)c3cc(-c4cnn5cccnc45)ncc23)CC1 [Example 47, 1-(6-methoxy-3,4-dihydro-2H-benzo[b][1,4]oxazin-7-yl)-N-(2-(4-(methoxymethyl)piperidin-1-yl)ethyl)-6-(pyrazolo[1,5-a]pyrimidin-3-yl)-1H-pyrazolo[4,3-c]pyridine-3-carboxamide]	5.01 to 50.1
COc1cc2c(cc1-n1nc(C(=O)NCCN3CC4(CCOCC4)C3)c3cnc(-c4cnn5cccnc45)cc31)OCCN2 [Example 48, N-(2-(7-oxa-2-azaspiro[3.5]nonan-2-yl)ethyl)-1-(6-methoxy-3,4-dihydro-2H-benzo[b][1,4]oxazin-7-yl)-6-(pyrazolo[1,5-a]pyrimidin-3-yl)-1H-pyrazolo[4,3-c]pyridine-3-carboxamide]	< 5.01
COc1cc2c(cc1-n1nc(C(=O)NCCN3CCCC4(COC4)C3)c3cnc(-c4cnn5cccnc45)cc31)OCCN2 [Example 49, N-(2-(2-oxa-6-azaspiro[3.5]nonan-6-yl)ethyl)-1-(6-methoxy-3,4-dihydro-2H-benzo[b][1,4]oxazin-7-yl)-6-(pyrazolo[1,5-a]pyrimidin-3-yl)-1H-pyrazolo[4,3-c]pyridine-3-carboxamide]	5.01 to 50.1
COc1cc2c(cc1-n1nc(C(=O)NCCN3C[C@H]4COC(=O)[C@H]4C3)c3cnc(-c4cnn5cccnc45)cc31)OCCN2 [Example 50, 1-(6-methoxy-3,4-dihydro-2H-benzo[b][1,4]oxazin-7-yl)-N-(2-((3aS,6aR)-1-oxotetrahydro-1H-furo[3,4-c]pyrrol-5(3H)-yl)ethyl)-6-(pyrazolo[1,5-a]pyrimidin-3-yl)-1H-pyrazolo[4,3-c]pyridine-3-carboxamide]	5.01 to 50.1
COc1cc2c(cc1-n1nc(C(=O)NCCN3CCC4(CC3)COC(=O)C4)c3cnc(-c4cnn5cccnc45)cc31)OCCN2 [Example 51, 1-(6-methoxy-3,4-dihydro-2H-benzo[b][1,4]oxazin-7-yl)-N-(2-(3-oxo-2-oxa-8-azaspiro[4.5]decan-8-yl)ethyl)-6-(pyrazolo[1,5-a]pyrimidin-3-yl)-1H-pyrazolo[4,3-c]pyridine-3-carboxamide]	< 5.01
COc1cc2c(cc1-n1nc(C(=O)NCCN3CCC4(CCOC4=O)CC3)c3cnc(-c4cnn5cccnc45)cc31)OCCN2 [Example 52, 1-(6-methoxy-3,4-dihydro-2H-benzo[b][1,4]oxazin-7-yl)-N-(2-(1-oxo-2-oxa-8-azaspiro[4.5]decan-8-yl)ethyl)-6-(pyrazolo[1,5-a]pyrimidin-3-yl)-1H-pyrazolo[4,3-c]pyridine-3-carboxamide]	< 5.01
COc1cc2c(cc1-n1nc(C(=O)NCCN3CCC(C(=O)N(C)C)CC3)c3cnc(-c4cnn5cccnc45)cc31)OCCN2 [Example 53, N-(2-(4-(dimethylcarbamoyl)piperidin-1-yl)ethyl)-1-(6-methoxy-3,4-dihydro-2H-benzo[b][1,4]oxazin-7-yl)-6-(pyrazolo[1,5-a]pyrimidin-3-yl)-1H-pyrazolo[4,3-c]pyridine-3-carboxamide]	5.01 to 50.1
COc1cc2c(cc1-n1nc(NCCN(C)C)c3cnc(-c4cnn5cccnc45)cc31)OCCN2 [Example 54, N1-(1-(6-methoxy-3,4-dihydro-2H-benzo[b][1,4]oxazin-7-yl)-6-(pyrazolo[1,5-a]pyrimidin-3-yl)-1H-pyrazolo[4,3-c]pyridin-3-yl)-N2,N2-dimethylethane-1,2-diamine]	5.01 to 50.1
